# Read-outs that look alike come from different tables or passages of the source.
# Tests used:
# [1] = test system: CTCL cells; assay: Apoptosis by Annexin V-FITC flow cytometry in CTCL cell lines; assay type: cell-based, Human; settings: Annexin V assay measured by flow cytometry; FIGS. 5A-5D
# Method: Human CTCL cell lines (Hut78, SeAx, and MyLa) were grown in RPMI 1640 medium supplemented with 10% heat-inactivated fetal bovine serume (FBS), glutamine (2 mM) and streptomycin (100 μg/ml) at 37° C., 5% CO2 and 95% humidity.
# Romidepsin was used in a concentration ranging from 0.25 nM to 10 μM. 5-azacitidine was used in a concentration ranging from 500 nM to 10 μM. After 24 to 72 hours of the combined drug treatment, the levels of apoptosis and necrosis were measured by flow cytometry with Annexin V-FITC detection kit.
# [2] = cited from earlier work
Compound,apoptosis [1],"solubility ([2]; acetone, ethanol and methyl ketone)",solubility ([2]; dimethylsulfoxide (DMSO)),"solubility ([2]; ethanol/water (50/50), propylene glycol and polyethylene glycol)","solubility ([2]; water, water-saturated octanol, 5% dextrose in water, N-methyl-2-pyrrolidone, normal saline and 5% Tween 80 in water)"
"Nc1ncn([C@@H]2O[C@H](CO)[C@@H](O)[C@H]2O)c(=O)n1 [5-azacitidine, 4-amino-1-β-D-ribofuranozyl-s-triazin-2(1H)-one]",21.4%,insoluble,soluble,slightly soluble,sparingly soluble
"C/C=C1\NC(=O)[C@H]2CSSCC/C=C/[C@H](CC(=O)N[C@H](C(C)C)C(=O)N2)OC(=O)[C@H](C(C)C)NC1=O [romidepsin, (1S,4S,7Z,10S,16E,21R)-7-ethylidene-4,2′-bis(1-methylethyl)-2-oxa-12,13-dithia-5,8,20,23-tetrazabicyclo[8.7.6]tricos-16-ene-3,6,9,19,22-pentone]",18.8%,,,,

# From patent publication US20130085115A1, “COMBINATION THERAPY FOR LYMPHOMA” (Celgene Corporation, priority 2011, published 2013)
